According to ChEMBL document CHEMBL4033685, “C21-steroidal pregnane sapogenins and their derivatives as anti-inflammatory agents” (Bioorg Med Chem, 2017):
Active and inactive are the calls of the source. The calls are words filed in the database; no cut-off is given here.

How the values were obtained:
[1] = target: Transcription factor p65 (Homo sapiens) (UniProt Q04206); assay: Inhibition of TNFalpha-stimulated NF-kB p65 phosphorylation (unknown origin) expressed in human AD293 cells at 10 uM after 3 hrs by Western blot analysis; type: cell-based
Sequence of Transcription factor p65 (Homo sapiens) (Q04206 whole entry): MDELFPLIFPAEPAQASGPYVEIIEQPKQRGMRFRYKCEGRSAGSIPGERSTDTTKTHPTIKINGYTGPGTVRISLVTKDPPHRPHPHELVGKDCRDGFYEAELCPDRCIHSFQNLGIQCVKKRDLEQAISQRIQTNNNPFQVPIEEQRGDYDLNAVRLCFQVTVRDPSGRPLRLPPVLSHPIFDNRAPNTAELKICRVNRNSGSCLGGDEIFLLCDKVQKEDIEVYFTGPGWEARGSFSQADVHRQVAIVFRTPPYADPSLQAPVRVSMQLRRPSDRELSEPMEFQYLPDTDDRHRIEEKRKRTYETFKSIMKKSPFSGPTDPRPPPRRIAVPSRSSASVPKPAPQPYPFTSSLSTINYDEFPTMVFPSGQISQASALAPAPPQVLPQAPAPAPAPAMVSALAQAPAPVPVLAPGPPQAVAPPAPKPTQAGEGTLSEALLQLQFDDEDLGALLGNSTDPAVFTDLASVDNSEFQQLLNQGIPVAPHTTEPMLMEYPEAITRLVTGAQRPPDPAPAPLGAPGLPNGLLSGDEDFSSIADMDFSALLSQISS

Toll-like receptor 4 [2] = target: T1, Toll-like receptor 4 (Homo sapiens, UniProt O00206); assay: Antagonist activity at TLR4 in human THP1 cells harboring human TRAF6 assessed as inhibition of LPS-stimulated IL-6 level at 10 uM by bead based immunoassay; type: cell-based
T1 sequence (O00206 whole entry): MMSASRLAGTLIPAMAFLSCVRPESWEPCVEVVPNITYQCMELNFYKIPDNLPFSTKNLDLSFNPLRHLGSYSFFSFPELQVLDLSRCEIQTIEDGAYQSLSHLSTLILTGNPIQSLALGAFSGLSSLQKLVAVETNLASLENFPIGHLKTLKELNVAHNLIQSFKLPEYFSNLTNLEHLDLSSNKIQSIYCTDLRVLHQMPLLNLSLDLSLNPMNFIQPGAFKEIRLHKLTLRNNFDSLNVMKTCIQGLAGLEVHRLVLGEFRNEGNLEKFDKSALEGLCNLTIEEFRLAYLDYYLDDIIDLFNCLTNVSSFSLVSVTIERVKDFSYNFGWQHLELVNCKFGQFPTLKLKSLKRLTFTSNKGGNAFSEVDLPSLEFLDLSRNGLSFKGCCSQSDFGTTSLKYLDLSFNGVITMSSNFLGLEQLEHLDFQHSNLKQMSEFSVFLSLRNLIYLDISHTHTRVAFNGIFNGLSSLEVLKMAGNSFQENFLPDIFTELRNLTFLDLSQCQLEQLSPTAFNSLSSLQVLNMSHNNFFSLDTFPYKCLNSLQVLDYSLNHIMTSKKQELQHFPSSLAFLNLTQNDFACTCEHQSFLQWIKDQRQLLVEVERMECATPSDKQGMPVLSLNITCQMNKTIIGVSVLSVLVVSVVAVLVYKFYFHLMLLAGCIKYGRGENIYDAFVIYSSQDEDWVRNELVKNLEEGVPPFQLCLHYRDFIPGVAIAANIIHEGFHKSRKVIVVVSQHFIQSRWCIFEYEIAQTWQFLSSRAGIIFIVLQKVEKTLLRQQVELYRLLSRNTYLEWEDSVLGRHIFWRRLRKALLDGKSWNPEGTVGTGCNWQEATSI

Toll-like receptor 4 [3] = target: T1, Toll-like receptor 4; assay: Antagonist activity at TLR4 in human THP1 cells harboring human TRAF6 assessed as inhibition of LPS-stimulated TNFalpha level at 10 uM by bead based immunoassay; type: cell-based
[4] = target: Toll-like receptor 2 (Homo sapiens) (UniProt O60603); assay: Antagonist activity at TLR2 in human THP1 cells assessed as inhibition of PGN-stimulated IL-1beta level at 10 uM by bead based immunoassay; type: cell-based
Sequence of Toll-like receptor 2 (Homo sapiens) (O60603 whole entry): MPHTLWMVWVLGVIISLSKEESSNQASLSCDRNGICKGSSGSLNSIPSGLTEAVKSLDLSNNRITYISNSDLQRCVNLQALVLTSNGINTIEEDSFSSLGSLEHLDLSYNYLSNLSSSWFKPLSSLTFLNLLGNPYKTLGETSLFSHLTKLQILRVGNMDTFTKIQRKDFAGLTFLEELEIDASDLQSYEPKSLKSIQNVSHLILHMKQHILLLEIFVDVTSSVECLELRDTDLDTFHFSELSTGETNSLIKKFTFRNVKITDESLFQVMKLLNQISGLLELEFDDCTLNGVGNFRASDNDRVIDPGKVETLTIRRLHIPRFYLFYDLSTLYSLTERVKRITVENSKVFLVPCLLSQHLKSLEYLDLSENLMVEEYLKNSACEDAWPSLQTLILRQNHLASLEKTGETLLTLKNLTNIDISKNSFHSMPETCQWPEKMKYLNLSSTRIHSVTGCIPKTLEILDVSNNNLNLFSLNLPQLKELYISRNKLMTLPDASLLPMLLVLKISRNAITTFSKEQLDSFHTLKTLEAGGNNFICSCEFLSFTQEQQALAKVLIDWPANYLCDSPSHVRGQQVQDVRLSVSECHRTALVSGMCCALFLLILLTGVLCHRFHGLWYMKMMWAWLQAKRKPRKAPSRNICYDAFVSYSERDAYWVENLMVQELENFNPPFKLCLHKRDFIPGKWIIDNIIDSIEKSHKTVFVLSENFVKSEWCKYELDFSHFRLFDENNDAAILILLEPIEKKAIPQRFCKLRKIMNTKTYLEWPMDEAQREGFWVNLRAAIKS

[5] = target: T2, Nuclear factor NF-kappa-B p100 subunit (Homo sapiens) (UniProt Q00653); assay: Effect on p100/p52 phosphorylation in human THP1 cells at 10 uM after 3 hrs by Western blot analysis; type: cell-based
T2 sequence (whole entry): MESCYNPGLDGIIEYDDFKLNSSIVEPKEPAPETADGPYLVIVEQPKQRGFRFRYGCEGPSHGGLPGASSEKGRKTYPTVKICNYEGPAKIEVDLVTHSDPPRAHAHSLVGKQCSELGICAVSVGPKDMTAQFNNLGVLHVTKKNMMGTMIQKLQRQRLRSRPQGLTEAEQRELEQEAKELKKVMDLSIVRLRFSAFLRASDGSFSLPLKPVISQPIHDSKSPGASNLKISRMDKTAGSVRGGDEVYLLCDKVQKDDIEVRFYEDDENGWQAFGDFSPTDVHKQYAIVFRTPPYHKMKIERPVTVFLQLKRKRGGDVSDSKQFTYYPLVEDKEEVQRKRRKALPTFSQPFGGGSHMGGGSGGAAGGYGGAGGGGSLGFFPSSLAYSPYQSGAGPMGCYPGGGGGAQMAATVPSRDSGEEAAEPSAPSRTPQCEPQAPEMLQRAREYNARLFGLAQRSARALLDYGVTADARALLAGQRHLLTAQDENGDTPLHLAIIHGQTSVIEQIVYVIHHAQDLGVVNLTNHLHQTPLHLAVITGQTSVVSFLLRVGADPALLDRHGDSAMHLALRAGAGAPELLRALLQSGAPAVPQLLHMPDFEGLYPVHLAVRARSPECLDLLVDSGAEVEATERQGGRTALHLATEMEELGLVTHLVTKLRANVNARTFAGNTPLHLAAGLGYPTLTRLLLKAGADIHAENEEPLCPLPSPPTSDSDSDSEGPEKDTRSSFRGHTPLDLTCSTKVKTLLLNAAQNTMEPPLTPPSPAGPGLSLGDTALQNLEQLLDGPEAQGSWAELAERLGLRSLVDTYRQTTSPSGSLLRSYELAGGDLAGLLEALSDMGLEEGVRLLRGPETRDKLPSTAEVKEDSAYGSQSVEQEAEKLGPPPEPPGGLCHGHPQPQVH

Toll-like receptor 4 [6] = target: T1, Toll-like receptor 4; assay: Antagonist activity at TLR4 in human THP1 cells assessed as inhibition of LPS-stimulated NF-kB non-canonical signaling pathway by measuring decrease in p100 phosphorylation at 10 uM after 3 hrs by Western blot analysis; type: cell-based
THP-1 [7] = assay: Upregulation of IKKalpha protein expression in human THP1 cells at 10 uM after 3 hrs by Western blot analysis; type: functional, cell-based
Toll-like receptor 4 [8] = target: T1, Toll-like receptor 4; assay: Antagonist activity at TLR4 in human THP1 cells assessed as inhibition of LPS-stimulated TNFalpha level at 10 uM by bead based immunoassay; type: cell-based
THP-1 [9] = assay: Effect on RelB protein expression in human THP1 cells at 10 uM after 3 hrs by Western blot analysis; type: functional, cell-based
[10] = target: Toll-like receptor 2 (Homo sapiens) (UniProt O60603); assay: Antagonist activity at TLR2 in human THP1 cells assessed as inhibition of PGN-stimulated TNFalpha level at 10 uM by bead based immunoassay; type: cell-based
AD293 [11] = assay: Upregulation of IKKalpha protein expression in human AD293 cells at 10 uM after 3 hrs by Western blot analysis; type: functional, cell-based
[12] = target: T2, Nuclear factor NF-kappa-B p100 subunit (Homo sapiens); assay: Effect on p100 phosphorylation in human THP1 cells at 10 uM after 3 hrs by Western blot analysis; type: cell-based
[13] = target: Transcription factor p65 (Homo sapiens) (UniProt Q04206); assay: Inhibition of TNFalpha-stimulated NF-kB p65 activation (unknown origin) expressed in human AD293 cells assessed as nuclear translocation of p65 at 10 uM after 3 hrs by confocal microscopic method; type: cell-based
AD293 [14] = assay: Effect on IkBalpha protein expression in TNFalpha-stimulated human AD293 cells at 10 uM after 3 hrs by Western blot analysis; type: functional, cell-based
THP-1 [15] = assay: Upregulation of IKKalpha protein expression in LPS-stimulated human THP1 cells at 10 uM after 3 hrs by Western blot analysis; type: functional, cell-based
AD293 [16] = assay: Cytotoxicity against human AD293 cells assessed as reduction in cell viability after 24 hrs by methylene blue dye based spectrophotometric method; conditions: ad293, 24 h
[17] = target: Toll-like receptor 3 (Homo sapiens) (UniProt O15455); assay: Antagonist activity at TLR3 in human THP1 cells assessed as inhibition of poly IC-stimulated TNFalpha level at 10 uM by bead based immunoassay; type: cell-based
Sequence of Toll-like receptor 3 (Homo sapiens) (O15455 whole entry): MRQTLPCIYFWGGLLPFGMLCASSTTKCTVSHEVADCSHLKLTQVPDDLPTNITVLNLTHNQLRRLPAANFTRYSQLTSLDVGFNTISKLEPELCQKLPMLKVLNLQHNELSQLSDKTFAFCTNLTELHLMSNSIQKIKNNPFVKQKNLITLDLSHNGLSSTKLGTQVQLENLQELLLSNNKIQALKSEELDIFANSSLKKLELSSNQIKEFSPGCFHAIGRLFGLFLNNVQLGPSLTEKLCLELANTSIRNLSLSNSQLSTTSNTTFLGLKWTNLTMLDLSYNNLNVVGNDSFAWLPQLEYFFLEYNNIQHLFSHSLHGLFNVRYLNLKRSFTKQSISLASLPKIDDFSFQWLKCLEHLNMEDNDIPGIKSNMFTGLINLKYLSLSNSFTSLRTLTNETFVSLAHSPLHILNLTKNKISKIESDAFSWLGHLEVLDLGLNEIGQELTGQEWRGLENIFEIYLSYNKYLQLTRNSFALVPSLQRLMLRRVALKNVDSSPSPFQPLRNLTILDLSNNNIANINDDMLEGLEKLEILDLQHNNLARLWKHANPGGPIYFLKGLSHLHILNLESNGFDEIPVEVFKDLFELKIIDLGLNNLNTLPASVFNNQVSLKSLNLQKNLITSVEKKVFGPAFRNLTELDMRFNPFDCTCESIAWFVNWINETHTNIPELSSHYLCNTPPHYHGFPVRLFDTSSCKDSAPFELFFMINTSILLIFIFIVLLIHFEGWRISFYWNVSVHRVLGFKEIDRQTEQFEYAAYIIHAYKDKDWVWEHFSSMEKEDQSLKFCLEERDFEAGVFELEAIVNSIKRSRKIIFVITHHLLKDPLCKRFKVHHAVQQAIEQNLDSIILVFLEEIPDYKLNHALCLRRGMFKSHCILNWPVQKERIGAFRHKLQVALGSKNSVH

Toll-like receptor 4 [18] = target: T1, Toll-like receptor 4; assay: Antagonist activity at TLR4 in human THP1 cells assessed as inhibition of LPS-stimulated IL-1beta level at 10 uM by bead based immunoassay; type: cell-based
AD293 [19] = assay: Upregulation of IKKalpha protein expression in TNFalpha-stimulated human AD293 cells at 10 uM after 3 hrs by Western blot analysis; type: functional, cell-based
Toll-like receptor 4 [20] = target: T1, Toll-like receptor 4; assay: Antagonist activity at TLR4 in human THP1 cells harboring human TRAF6 assessed as inhibition of LPS-stimulated IL-1beta level at 10 uM by bead based immunoassay; type: cell-based
Toll-like receptor 4 [21] = target: T1, Toll-like receptor 4; assay: Antagonist activity at TLR4 in human THP1 cells assessed as inhibition of LPS-stimulated NF-kB non-canonical signaling pathway by measuring decrease in RelB expression at 10 uM after 3 hrs by Western blot analysis; type: cell-based
[22] = target: T3, NF-kappa-B inhibitor alpha (Homo sapiens) (UniProt P25963); assay: Inhibition of TNFalpha-stimulated IkBalpha phosphorylation in human AD293 cells at 10 uM after 3 hrs by Western blot analysis; type: cell-based
T3 sequence (whole entry): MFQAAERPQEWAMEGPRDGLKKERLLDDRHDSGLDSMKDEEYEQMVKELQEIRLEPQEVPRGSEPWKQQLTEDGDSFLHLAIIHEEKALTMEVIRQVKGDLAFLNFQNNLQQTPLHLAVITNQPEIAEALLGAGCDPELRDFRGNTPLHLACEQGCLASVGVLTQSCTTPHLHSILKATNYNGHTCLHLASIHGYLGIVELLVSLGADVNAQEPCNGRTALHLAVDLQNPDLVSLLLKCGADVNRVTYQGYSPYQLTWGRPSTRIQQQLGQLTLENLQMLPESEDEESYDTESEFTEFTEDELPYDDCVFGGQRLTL

Toll-like receptor 4 [23] = target: T1, Toll-like receptor 4; assay: Antagonist activity at TLR4 in human THP1 cells assessed as inhibition of LPS-stimulated IL-6 level at 10 uM by bead based immunoassay; type: cell-based

| Compound | inhibition [1] | inhibition (Toll-like receptor 4 [2]) | inhibition (Toll-like receptor 4 [3]) | inhibition [4] | Activity [5] | inhibition (Toll-like receptor 4 [6]) | Activity (THP-1 [7]) | inhibition (Toll-like receptor 4 [8]) | Activity (THP-1 [9]) | inhibition [10] | Activity (AD293 [11]) | Activity [12] | inhibition [13] | Activity (AD293 [14]) | Activity (THP-1 [15]) | CC10 (AD293 [16]) [µM] | inhibition [17] | inhibition (Toll-like receptor 4 [18]) | Activity (AD293 [19]) | inhibition (Toll-like receptor 4 [20]) | other results |
| --- | --- | --- | --- | --- | --- | --- | --- | --- | --- | --- | --- | --- | --- | --- | --- | --- | --- | --- | --- | --- | --- |
| COc1ccc(/C=C/C(=O)O[C@H]2CC[C@@]3(C)C(=CC[C@]4(O)[C@@H]3C[C@@H](OC(=O)/C=C(\C)C(C)C)[C@@]3(C)[C@]4(O)CC[C@@]3(O)C(C)=O)C2)cc1 | inactive | inactive | inactive | Active | inactive | inactive | Active | Active | inactive | Active | Active | inactive | inactive | inactive | Active | > 10 | Active | Active | Active | inactive | inhibition (Toll-like receptor 4 [21]): inactive; inhibition [22]: inactive; inhibition (Toll-like receptor 4 [23]): Active |
| CC(=O)[C@]1(O)CC[C@@]2(O)[C@]1(C)[C@H](OC(=O)c1ccc(O)cc1)C[C@@H]1[C@@]3(C)CC[C@H](OC(=O)CCl)CC3=CC[C@]12O | inactive | inactive | inactive | Active | inactive | inactive | Active | Active | inactive | Active | Active | inactive | inactive | inactive | Active | > 10 | Active | Active | Active | inactive | inhibition (Toll-like receptor 4 [21]): inactive; inhibition [22]: inactive; inhibition (Toll-like receptor 4 [23]): Active |
